ChEMBL document CHEMBL4680150, “Design, synthesis and biological evaluation of vincamine derivatives as potential pancreatic β-cells protective agents for the treatment of type 2 diabetes mellitus” (Eur J Med Chem, 2020)
Calls of active or inactive are those of the source.

Key:
INS1(832/13) [1] = test: Cytoprotective activity in rat INS-1 832/13 cells assessed as inhibition of STZ-induced apoptosis at 20 uM incubated for 24 hrs by MTT assay relative to control; assay type: functional
INS1(832/13) [2] = test: Cytoprotective activity in rat INS-1 832/13 cells assessed as inhibition of STZ-induced apoptosis incubated for 24 hrs by MTT assay; assay type: functional, cell-based; details: INS-1 832/13, 24 h
INS-1 832/13 [3] = test: Activation of PI3K/Akt signalling pathway in STZ-induced rat INS-1 832/13 cells assessed as increase in phosphorylation of FOX01 at Ser256 residue at 5 to 20 uM after 24 hrs by Western blot analysis; details: filed as activator, dose 5-20 µM
INS1(832/13) [4] = test: Potency index, ratio of vincamine EC50 to test compound EC50 for cytoprotective activity in rat INS-1 832/13 cells assessed as inhibition of STZ-induced apoptosis; assay type: functional
INS1(832/13) [5] = test: Cytoprotective activity against STZ-induced toxicity in rat INS-1 832/13 cells at 10 uM incubated for 24 hrs by MTT assay; assay type: functional, cell-based
INS1(832/13) [6] = test: Cytoprotective activity against STZ-induced toxicity in rat INS-1 832/13 cells assessed as mass of apoptotic cells at 20 uM by Annexin V-FITC staining based flow cytometric analysis (reference value: 40.8%); assay type: functional
INS1(832/13) [7] = test: Cytoprotective activity against STZ-induced toxicity in rat INS-1 832/13 cells assessed as mass of apoptotic cells at 5 uM by Annexin V-FITC staining based flow cytometric analysis (reference value: 40.8%); assay type: functional
INS1(832/13) [8] = test: Cytoprotective activity against STZ-induced toxicity in rat INS-1 832/13 cells assessed as mass of apoptotic cells at 10 uM by Annexin V-FITC staining based flow cytometric analysis (reference value: 40.8%); assay type: functional
INS-1 832/13 [9] = test: Activation of AKT in STZ-induced rat INS-1 832/13 cells assessed as increase in Akt phosphorylation at 5 to 20 uM after 24 hrs by AlphaLISA assay; details: filed as activator, dose 5-20 µM
INS-1 832/13 [10] = test: Activation of AKT in STZ-induced rat INS-1 832/13 cells assessed as increase in Akt phosphorylation at 5 to 20 uM after 24 hrs by Western blot analysis; details: filed as activator, dose 5-20 µM
INS1(832/13) [11] = test: Cytoprotective activity in rat INS-1 832/13 cells assessed as inhibition of STZ-induced apoptosis at 20 uM incubated for 24 hrs in presence of wortmannin by MTT assay; assay type: functional, cell-based
INS-1 832/13 [12] = test: Activation of AKT in STZ-induced rat INS-1 832/13 cells assessed as increase in Akt phosphorylation at 20 uM after 24 hrs in presence of wortmannin by Western blot analysis
INS-1 832/13 [13] = test: Activation of PI3K/Akt signalling pathway in STZ-induced rat INS-1 832/13 cells assessed as increase in phosphorylation of GSK3beta at Ser9 residue at 5 to 20 uM after 24 hrs by Western blot analysis; details: filed as activator, dose 5-20 µM
INS-1 832/13 [14] = test: Activation of PI3K/Akt signalling pathway in STZ-induced rat INS-1 832/13 cells assessed as decrease in caspase 9 protein expression at 5 to 20 uM after 24 hrs by Western blot analysis; details: filed as activator, dose 5-20 µM
INS-1 832/13 [15] = test: Activation of PI3K/Akt signalling pathway in STZ-induced rat INS-1 832/13 cells assessed as decrease in caspase 3 protein expression at 5 to 20 uM after 24 hrs by Western blot analysis; details: filed as activator, dose 5-20 µM
INS-1 832/13 [16] = test: Activation of PI3K/Akt signalling pathway in STZ-induced rat INS-1 832/13 cells assessed as decrease in cleaved-caspase 3 protein expression at 5 to 20 uM after 24 hrs by Western blot analysis; details: filed as activator, dose 5-20 µM
INS-1 832/13 [17] = test: Activation of PI3K/Akt signalling pathway in STZ-induced rat INS-1 832/13 cells assessed as decrease in Bim mRNA expression at 5 to 20 uM after 24 hrs by RT-PCR analysis; details: filed as activator, dose 5-20 µM
INS-1 832/13 [18] = test: Activation of PI3K/Akt signalling pathway in STZ-induced rat INS-1 832/13 cells assessed as decrease in p21 mRNA expression at 5 to 20 uM after 24 hrs by RT-PCR analysis; details: filed as activator, dose 5-20 µM
INS1(832/13) [19] = test: Cytoprotective activity against STZ-induced rat INS-1 832/13 cells assessed as increase in IRS2 protein expression at 5 to 20 uM after 24 hrs Western blot analysis; assay type: functional, cell-based; details: dose 5-20 µM
INS1(832/13) [20] = test: Cytoprotective activity against STZ-induced rat INS-1 832/13 cells assessed as increase in IRS2 mRNA expression at 5 to 20 uM after 24 hrs RT-PCR analysis; assay type: functional, cell-based; details: dose 5-20 µM

SMILES	Activity (INS1(832/13) [1])	EC50 (INS1(832/13) [2])	also measured
CC[C@@]12C=C(CNCc3ccccc3)n3c4c(c5ccccc53)CCN(CCC1)[C@H]42	inactive	–	–
CC[C@@]12C=C(CNC(=O)C3CC3)n3c4c(c5ccccc53)CCN(CCC1)[C@H]42	Active	4.4 µM	–
CCNC(=O)OCC1=C[C@]2(CC)CCCN3CCc4c(n1c1ccccc41)[C@@H]32	Active	1.69 µM	–
CC[C@@]12C=C(CO)n3c4c(c5ccccc53)CCN(CCC1)[C@H]42	–	0.22 µM	Activity (INS-1 832/13 [3]): Active; Ratio EC50 (INS1(832/13) [4]): 2; Activity (INS1(832/13) [5]): Active; Activity (INS1(832/13) [6]): 19.1%; Activity (INS1(832/13) [7]): 32%; Activity (INS1(832/13) [8]): 26.1%; Activity (INS-1 832/13 [9]): Active; Activity (INS-1 832/13 [10]): Active; Activity (INS1(832/13) [11]): inactive; Activity (INS-1 832/13 [12]): inactive; Activity (INS-1 832/13 [13]): Active; Activity (INS-1 832/13 [14]): Active; Activity (INS-1 832/13 [15]): Active; Activity (INS-1 832/13 [16]): Active; Activity (INS-1 832/13 [17]): Active; Activity (INS-1 832/13 [18]): Active; Activity (INS1(832/13) [19]): Active; Activity (INS1(832/13) [20]): Active
CC[C@@]12C=C(COC(C)=O)n3c4c(c5ccccc53)CCN(CCC1)[C@H]42	Active	0.36 µM	–
CC[C@@]12C=C(C(=O)NC(C)C)n3c4c(c5ccccc53)CCN(CCC1)[C@H]42	Active	10.8 µM	–
CCCCNC(=O)C1=C[C@]2(CC)CCCN3CCc4c(n1c1ccccc41)[C@@H]32	Active	9.4 µM	–
CCCCCNC(=O)C1=C[C@]2(CC)CCCN3CCc4c(n1c1ccccc41)[C@@H]32	inactive	–	–
CCCOC(=O)C1=C[C@]2(CC)CCCN3CCc4c(n1c1ccccc41)[C@@H]32	Active	5.44 µM	–
CCCNCC1=C[C@]2(CC)CCCN3CCc4c(n1c1ccccc41)[C@@H]32	inactive	–	–
CCNC(=O)NCC1=C[C@]2(CC)CCCN3CCc4c(n1c1ccccc41)[C@@H]32	inactive	–	–
CC[C@@]12C=C(COC(=O)NCCO)n3c4c(c5ccccc53)CCN(CCC1)[C@H]42	Active	5.32 µM	–
CC[C@@]12C=C(CNC(=O)Nc3ccccc3)n3c4c(c5ccccc53)CCN(CCC1)[C@H]42	inactive	–	–
CC[C@@]12C=C(C(=O)OC)n3c4c(c5ccccc53)CCN(CCC1)[C@H]42 [APOVINCAMINE]	Active	5.03 µM	–
CC[C@@]12C=C(C(=O)Nc3ccccc3)n3c4c(c5ccccc53)CCN(CCC1)[C@H]42	inactive	–	–
CCCNC(=O)C1=C[C@]2(CC)CCCN3CCc4c(n1c1ccccc41)[C@@H]32	Active	0.37 µM	–
CCCC(=O)NCC1=C[C@]2(CC)CCCN3CCc4c(n1c1ccccc41)[C@@H]32	Active	8.7 µM	–
CC[C@@]12C=C(CNC(=O)c3ccccc3)n3c4c(c5ccccc53)CCN(CCC1)[C@H]42	inactive	–	–
CC[C@@]12C=C(CN)n3c4c(c5ccccc53)CCN(CCC1)[C@H]42	Active	7.62 µM	–
CC[C@@]12C=C(C(=O)N3CCOCC3)n3c4c(c5ccccc53)CCN(CCC1)[C@H]42	Active	10.9 µM	–
CC[C@@]12C=C(CNC)n3c4c(c5ccccc53)CCN(CCC1)[C@H]42	Active	1.6 µM	–
CC[C@@]12C=C(C(=O)OC(C)C)n3c4c(c5ccccc53)CCN(CCC1)[C@H]42	Active	4.55 µM	–
CCNC(=O)C1=C[C@]2(CC)CCCN3CCc4c(n1c1ccccc41)[C@@H]32	Active	0.2 µM	–
CCN(CC)C(=O)C1=C[C@]2(CC)CCCN3CCc4c(n1c1ccccc41)[C@@H]32	Active	11.5 µM	–
CCCCNC(=O)OCC1=C[C@]2(CC)CCCN3CCc4c(n1c1ccccc41)[C@@H]32	inactive	–	–
